Article PMC11948302, “OATP1B-type Transport Function Is a Determinant of Aromatase Inhibitor–Associated Arthralgia Susceptibility” (Cancer Research Communications, 2025)
Marks after values point to notes of the source that are not given here. Values belong to the compound of their own block, whether it stands above or below them.

Columns and labels:
[1] = In vivo pharmacokinetic studies in mice (plasma and liver, LC/MS-MS); settings: for AUC fold change vs. WT: 95% confidence interval; for AUC(0-t) / Cmax: female, FVB, mouse, plasma, po; for liver levels, wild-type vs Oatp1a/1b^(−/−) mice / liver concentrations in OATP1B1^(tg) or OATP1B3^(tg) mice: single oral dose, letrozole 10 mg/kg or exemestane 20 mg/kg; for liver concentrations in OATP1B1^(tg) or OATP1B3^(tg) mice: relative to Oatp1a/1b^(−/−) and wild-type
Procedure: The analysis was conducted using a Vanquish UHPLC aligned with a Quantiva triple-stage quadrupole mass spectrometer (Thermo Fisher Scientific). An ACQUITY UPLC BEH C18 Column (130 Å, 1.7 μm, 2.1 mm × 50 mm, Waters Co.) protected by ACQUITY UPLC BEH Shield RP18 VanGuard Pre-column (130 Å, 1.7 μm, 2.1 mm × 5 mm, Waters Co.) was used for analyte separation. The injection volume of the sample was 10 μL. The temperature of the column was kept at 40°C, whereas the autosampler rack was kept at 4°C. The mobile phase consisted of solvent A, which was a solution of 0.1% acetic acid in LC/MS-grade water, and solvent B, which was a solution of 0.1% formic acid in acetonitrile. The total run time was 4.5 minutes. The following were the gradient conditions: 0.3 mL/minutes was the flow rate for the following intervals: 0 to 0.5 minutes, 30% B; 0.5 to 3.0 minutes, 30% to 95% B; 3.0 to 4.0 minutes, 95% B; and 4.001 to 4.5 minutes, 95% to 30% B. The vaporizer was adjusted to 360°C, and the ion transfer tube temperature was 340°C. The mass spectrometry assay was configured with a positive voltage of 3600 V delivered to the ESI capillary. The collision gas utilized was argon, with a pressure of 1.5 mTorr. The mass spectrometer was set up with the following optimized parameters: 1 arbitrary unit (Arb) for sweep gas, 5 Arb for auxiliary gas, and 25 Arb for sheath gas. […] The accuracy, expressed as a percent bias varied from −7.80% to 5.10%, whereas the inter-assay and intra-assay precisions ranged from 2.19% to 7.09% according to the results of assay validation tests. The lower limit of quantification was 0.4 ng/mL.
Letrozole was quantified using an LC/MS-MS method described previously ([14]). A Vanquish UHPLC and Quantiva triple-stage quadrupole mass spectrometer (Thermo Fisher Scientific) were used in the analysis. Analytes were separated chromatographically using a C18 AQUASIL guard cartridge (2.1 mm × 10 mm, 3 μm; Thermo Fisher Scientific) and an Accucore aQ column (50 mm × 2.1 mm, 2.6 μm). The temperature of the column was set at 40°C, whereas the autosampler was kept at 4°C. The mobile phase consisted of solvent A, which was a solution of 0.1% acetic acid in LC/MS-grade water, and solvent B, which was a solution of 0.1% formic acid in acetonitrile. A gradient elution method was employed for 5.0 minutes, with a flow rate of 0.4 mL/minutes. […] Injections were performed using 3 μL of the extracted samples. The mass spectrometer parameters were optimized and configured as follows: 25 Arb for sheath gas, 5 Arb for auxiliary gas, and 1 Arb for sweep gas. The temperature of the ion transfer tube and vaporizer was adjusted to 340°C and 360°C, respectively. Argon was used as the collision gas at a pressure of 1.5 mTorr. […] The lower limit of quantification was 5 ng/mL.
Female wild-type, Oatp1a/1b cluster-knockout mice [Oatp1a/1b^(−/−) mice] and Oatp1a/1b^(−/−) mice with transgenic hepatic expression of OATP1B1 [OATP1B1^(tg) mice] or OATP1B3 [OATP1B3^(tg) mice] were all on an FVB background (RRID: IMSR_T000141), and experimental groups were age- and weight-matched for each experiment. Female mice with a deficiency of all Cyp3a isoforms [Cyp3a^(−/−)] were similarly matched with FVB wild-type mice. All mice were bred in-house. Littermates of the same sex and genotype were housed in groups of maximally five animals in a temperature- and light-controlled environment (12-hour light/dark cycles) in cages lined with absorbent bedding. Mice were given free access to standard food and water.
For in vivo pharmacokinetic studies, mice were randomized into experimental groups of equal size.

patients = settings: randomized phase III, cited from earlier work
mice [2] = test: Histopathology of knee joints after chronic letrozole; format: in vivo; settings: mice receiving multiple doses of letrozole (0.1 mg/kg/day, 15 days)
Procedure: At the end of the chronic letrozole treatment, hind limbs of three randomly selected mice per group were collected, peeled for skin, and preserved in 10% neutral buffered formaline at room temperature for at least 48 hours until tissue processing. Tissues from the hind limbs were routinely processed for histopathology on a Leica Peloris 3 Tissue Processor (Leica Biosystems), embedded in paraffin, sectioned at an approximate thickness of 4 to 5 μm, and batch stained with hematoxylin and eosin on a Leica ST5020 autostainer using a routine and quality-controlled protocol. Slides were evaluated and representative photomicrographs were taken by a board-certified veterinary pathologist using a Nikon Eclipse Ci-L Upright Microscope (Nikon Instruments, Inc.) with attached 18 megapixel Olympus SC180 microscope-mounted digital camera and cellSens imaging software (Olympus Life Science).

Oatp1b2 = test: CDCA-24G plasma biomarker of hepatic Oatp1b2 function in mice; format: in vivo; settings: single oral letrozole 10 mg/kg, 2 hours
Procedure: A, The levels of CDCA-24G biomarker in plasma were measured via LC/MS-MS in wild-type and Cyp3a^(−/−) mice treated with a single oral administration of letrozole (10 mg/kg) or vehicle. […] Data are shown as mean ± SD. Two-sided, unpaired Student t tests were used to analyze the data and no multiple comparison adjustment was applied. **, P < 0.01 and ****, P < 0.0001 compared with the wild-type group; n = 9 to 10 per group.

mice [3] = test: Photobeam activity open field system (physical activity); format: in vivo
Procedure: An open-field photobeam activity system was used to monitor the motor activity of mice over a period of 12 hours after administration of letrozole ([27], [28]). Spontaneous physical/locomotor activity was assessed using an activity monitoring system consisting of a two-dimensional (X and Y axes) square frame that emits a grid of infrared beams (IR Actimeter and Actitrack software, Panlab, Harvard Apparatus). Animals were placed in a transparent enclosure inside the frame, and movement within the enclosure (general locomotor activity) was recorded as interruptions in the beams. During acute studies, mice were dosed with letrozole (0.5 mg/kg) orally at 5:00 pm and were tested individually for 12 hours during the active/dark phase of the light cycle (6:00 pm–6:00 am). Physical activity of the mice was similarly monitored at baseline and at the end of 15 days of the chronic treatment.

mice [4] = test: Von Frey hair test (mechanical sensitivity); format: in vivo
Procedure: Von Frey filaments were used as a mechanical sensitivity measurement following administration of letrozole in both chronic and acute treatments, using a strategy developed previously ([24]). After ensuring that the animal is acquainted with the environment, joint pain was directly evaluated by a hind limb withdrawal response to mechanical stimulation applied by the filaments. […] After a single dose, mechanical sensitivity was tested with the Von Frey filaments at 0, 1, 3, 6, and 24 hours after drug administration ([25], [26]). During the chronic treatment of letrozole (0.1 mg/kg/day for 15 days), mechanical sensitivity was measured at baseline, at the end of week 1, and the end of week 2. Analysts were blinded to the composition of the treatment groups.

[5] = design: method as in earlier work; settings: patients receiving continuous dosing regimens, prescribing information; cited from earlier work
[6] = 2.5 mg daily for 5 years vs intermittent regimen
[7] = OATP1B1^(tg) mice, chronic letrozole 0.1 mg/kg/day for 15 days, 12 hours
[8] = OATP1B1^(tg) mice, single oral letrozole 0.5 mg/kg, 12 hours
[9] = OATP1B3^(tg) mice, chronic letrozole 0.1 mg/kg/day for 15 days, 12 hours
[10] = OATP1B3^(tg) mice, single oral letrozole 0.5 mg/kg, 12 hours
[11] = Oatp1a/1b^(−/−) mice, chronic letrozole 0.1 mg/kg/day for 15 days, 12 hours
[12] = Oatp1a/1b^(−/−) mice, single oral letrozole 0.5 mg/kg, 12 hours
[13] = wild-type mice, chronic letrozole 0.1 mg/kg/day for 15 days, 12 hours
[14] = wild-type mice, letrozole 0.5 mg/kg, 12 h, Table S4
[15] = wild-type mice, single oral letrozole 0.5 mg/kg, 12 hours
[16] = wild-type mice, single oral letrozole 0.5 mg/kg, 12 hours, listed as letrozole

- AUC fold change vs. WT ([1]; OATP1B3^(tg) vs wild-type mice, exemestane 20 mg/kg oral): 2.27 (1.49–3.44)
- AUC fold change vs. WT ([1]; Oatp1a/1b^(−/−) vs wild-type mice, exemestane 20 mg/kg oral): 2.25 (1.60–3.18)
- AUC(0-t) ([1]; 20 mg/kg, AUC0–6h, OATP1B3^(tg) female mice, exemestane 20 mg/kg oral, mean with SEM): 294 ng·h/mL
- AUC(0-t) ([1]; 20 mg/kg, AUC0–6h, Oatp1a/1b^(−/−) female mice, exemestane 20 mg/kg oral, mean with SEM): 292 ng·h/mL
- AUC(0-t) ([1]; 20 mg/kg, AUC0–6h, wild-type female mice, exemestane 20 mg/kg oral, mean with SEM): 130 ng·h/mL
- Cmax ([1]; 20 mg/kg, OATP1B3^(tg) female mice, exemestane 20 mg/kg oral, mean with SEM): 152 ng/mL
- Cmax ([1]; 20 mg/kg, Oatp1a/1b^(−/−) female mice, exemestane 20 mg/kg oral, mean with SEM): 159 ng/mL
- Cmax ([1]; 20 mg/kg, wild-type female mice, exemestane 20 mg/kg oral, mean with SEM): 94 ng/mL
- liver levels, wild-type vs Oatp1a/1b^(−/−) mice [1]: higher levels
- liver concentrations in OATP1B1^(tg) or OATP1B3^(tg) mice [1]: partially restored
Compound: C=C1C[C@@H]2[C@H](CC[C@]3(C)C(=O)CC[C@@H]23)[C@@]2(C)C=CC(=O)C=C12 [Exemestane]
- suppression of estrogen levels and reduction of breast cancer tissue proliferation, intermittent vs standard daily dosing (patients; 25 mg three times a week vs 25 mg daily): non-inferior

- AUC fold change vs. WT ([1]; Cyp3a^(−/−) vs wild-type mice, letrozole 10 mg/kg oral): 1.59 (1.34–1.90)
- AUC fold change vs. WT ([1]; OATP1B1^(tg) vs wild-type mice, letrozole 10 mg/kg oral): 1.29 (0.94–1.78)
- AUC fold change vs. WT ([1]; OATP1B3^(tg) vs wild-type mice, letrozole 10 mg/kg oral): 1.27 (0.83–1.95)
- AUC fold change vs. WT ([1]; Oatp1a/1b^(−/−) vs wild-type mice, letrozole 10 mg/kg oral): 1.3 (0.92–1.86)
- AUC(0-t) ([1]; 10 mg/kg, AUC0–6h, OATP1B1^(tg) female mice, letrozole 10 mg/kg oral, mean with SEM): 33000 ng·h/mL
- AUC(0-t) ([1]; 10 mg/kg, AUC0–6h, OATP1B3^(tg) female mice, letrozole 10 mg/kg oral, mean with SEM): 32400 ng·h/mL
- AUC(0-t) ([1]; 10 mg/kg, AUC0–6h, Oatp1a/1b^(−/−) female mice, letrozole 10 mg/kg oral, mean with SEM): 33300 ng·h/mL
- AUC(0-t) ([1]; 10 mg/kg, AUC0–6h, wild-type female mice, letrozole 10 mg/kg oral, mean with SEM): 25500 ng·h/mL
- AUC(0-t) ([1]; 10 mg/kg, AUC0–24h, Cyp3a^(−/−) female mice, letrozole 10 mg/kg oral single dose, mean ± SEM): 141000 ng·h/mL
- AUC(0-t) ([1]; 10 mg/kg, AUC0–24h, wild-type female mice, letrozole 10 mg/kg oral single dose, mean ± SEM): 88700 ng·h/mL
- Cmax ([1]; 10 mg/kg, Cyp3a^(−/−) female mice, letrozole 10 mg/kg oral single dose, mean ± SEM): 6820 ng/mL
- Cmax ([1]; 10 mg/kg, OATP1B1^(tg) female mice, letrozole 10 mg/kg oral, mean with SEM): 6550 ng/mL
- Cmax ([1]; 10 mg/kg, OATP1B3^(tg) female mice, letrozole 10 mg/kg oral, mean with SEM): 6670 ng/mL
- Cmax ([1]; 10 mg/kg, Oatp1a/1b^(−/−) female mice, letrozole 10 mg/kg oral, mean with SEM): 6750 ng/mL
- Cmax ([1]; 10 mg/kg, wild-type female mice, letrozole 10 mg/kg oral single dose, Table 1 study, mean ± SEM): 5800 ng/mL
- Cmax ([1]; 10 mg/kg, wild-type female mice, letrozole 10 mg/kg oral, Table 2 study, mean with SEM): 5180 ng/mL
- liver levels, wild-type vs Oatp1a/1b^(−/−) mice [1]: higher levels
- liver concentrations in OATP1B1^(tg) or OATP1B3^(tg) mice [1]: partially restored
- Activ. (global activity) (mice [3]; [7]): 28,800
- Dist. (total distance traveled) (mice [3]; [7]): 380 m
- Locom. (locomotion) (mice [3]; [7]): 25,909
- MF (%) (moving fast) (mice [3]; [7]): 6.22%
- MS (%) (moving slow) (mice [3]; [7]): 11.58%
- RT (%) (resting time % of total duration) (mice [3]; [7]): 82.19%
- Res.T. (resting time) (mice [3]; [7]): 9.86 h
- Stere. (stereotypes) (mice [3]; [7]): 2,892
- Activ. (global activity) (mice [3]; [8]): 31,678
- Dist. (total distance traveled) (mice [3]; [8]): 377 m
- Locom. (locomotion) (mice [3]; [8]): 28,964
- MF (%) (moving fast) (mice [3]; [8]): 6.60%
- MS (%) (moving slow) (mice [3]; [8]): 11.08%
- RT (%) (resting time % of total duration) (mice [3]; [8]): 82.34%
- Res.T. (resting time) (mice [3]; [8]): 9.88 h
- Stere. (stereotypes) (mice [3]; [8]): 2,713
- Activ. (global activity) (mice [3]; [9]): 29,841
- Dist. (total distance traveled) (mice [3]; [9]): 373 m
- Locom. (locomotion) (mice [3]; [9]): 27,036
- MF (%) (moving fast) (mice [3]; [9]): 6.28%
- MS (%) (moving slow) (mice [3]; [9]): 12.01%
- RT (%) (resting time % of total duration) (mice [3]; [9]): 81.71%
- Res.T. (resting time) (mice [3]; [9]): 9.80 h
- Stere. (stereotypes) (mice [3]; [9]): 2,804
- Activ. (global activity) (mice [3]; [10]): 27,095
- Dist. (total distance traveled) (mice [3]; [10]): 340 m
- Locom. (locomotion) (mice [3]; [10]): 24,448
- MF (%) (moving fast) (mice [3]; [10]): 5.72%
- MS (%) (moving slow) (mice [3]; [10]): 11.06%
- RT (%) (resting time % of total duration) (mice [3]; [10]): 83.22%
- Res.T. (resting time) (mice [3]; [10]): 9.98 h
- Stere. (stereotypes) (mice [3]; [10]): 2,647
- Activ. (global activity) (mice [3]; [11]): 26,637
- Dist. (total distance traveled) (mice [3]; [11]): 316 m
- Locom. (locomotion) (mice [3]; [11]): 24,065
- MF (%) (moving fast) (mice [3]; [11]): 5.23%
- MS (%) (moving slow) (mice [3]; [11]): 11.23* %
- RT (%) (resting time % of total duration) (mice [3]; [11]): 83.55* %
- Res.T. (resting time) (mice [3]; [11]): 10.0* hours
- Stere. (stereotypes) (mice [3]; [11]): 2,572
- Activ. (global activity) (mice [3]; [12]): 26,674
- Dist. (total distance traveled) (mice [3]; [12]): 286 m
- Locom. (locomotion) (mice [3]; [12]): 24,494
- MF (%) (moving fast) (mice [3]; [12]): 4.64%
- MS (%) (moving slow) (mice [3]; [12]): 10.40%
- RT (%) (resting time % of total duration) (mice [3]; [12]): 84.96%
- Res.T. (resting time) (mice [3]; [12]): 10.2 h
- Stere. (stereotypes) (mice [3]; [12]): 2,180*
- Activ. (global activity) (mice [3]; [13]): 30,580
- Dist. (total distance traveled) (mice [3]; [13]): 383 m
- Locom. (locomotion) (mice [3]; [13]): 27,528
- MF (%) (moving fast) (mice [3]; [13]): 6.32%
- MS (%) (moving slow) (mice [3]; [13]): 13.30%
- RT (%) (resting time % of total duration) (mice [3]; [13]): 80.34%
- Res.T. (resting time) (mice [3]; [13]): 9.64 h
- Stere. (stereotypes) (mice [3]; [13]): 3,052
- Dist. (total distance traveled) (mice [3]; [14]): 512 m
- Res.T. (resting time) (mice [3]; [14]): 9.06 h
- Activ. (global activity) (mice [3]; [15]): 41163
- Dist. (total distance traveled) (mice [3]; [15]): 512 m
- Locom. (locomotion) (mice [3]; [15]): 37261
- MF (%) (moving fast) (mice [3]; [15]): 8.90%
- MS (%) (moving slow) (mice [3]; [15]): 15.53%
- RT (%) (resting time % of total duration) (mice [3]; [15]): 75.55%
- Res.T. (resting time) (mice [3]; [15]): 9.06 h
- Stere. (stereotypes) (mice [3]; [15]): 3902
- Activ. (global activity) (mice [3]; [16]): 41,163
- Locom. (locomotion) (mice [3]; [16]): 37,261
- Stere. (stereotypes) (mice [3]; [16]): 3,902
- time of maximal mechanical sensitivity after drug administration (mice [4]; wild-type mice, single dose of letrozole): 6 h
Compound: N#Cc1ccc(C(c2ccc(C#N)cc2)n2cncn2)cc1 [Letrozole]
- lesions in knee joints (histopathologic examination) (mice [2]): synovial hyperplasia, synovitis, and patellar tendinitis
- increase of CDCA-24G concentration in plasma vs vehicle control (Oatp1b2; Cyp3a^(−/−) mice): 2.17 fold
- increase of CDCA-24G concentration in plasma vs vehicle control (Oatp1b2; wild-type mice): 1.62 fold
- 7-year disease-free survival, intermittent vs continuous (patients; [6]): comparable
- incidence of arthralgia, intermittent vs continuous dosing (patients; [6]): only slightly decreased
- arthralgia-related changes in mechanical sensitivity (mice [4]; Oatp1a/1b^(−/−) mice vs humanized transgenic and wild-type mice, letrozole 0.1 mg/kg daily for 15 days): worst arthralgia-related phenotypic changes in mechanical sensitivity
- mechanical allodynia (paw withdrawal threshold) (mice [4]; wild-type mice, single dose of letrozole 0.1-0.5 mg/kg): reversible, concentration- and time-dependent allodynia
- accumulation in plasma [5]: does not substantially accumulate
